Where two headings read alike, the source gives them in different places.
What was measured:
CCRF-CEM = assay: SRB anticancer assay, leukemia; type: cell-based, human; details: 48 h
K-562 = assay: SRB anticancer assay, leukemia; type: cell-based, human; details: K-562, 48 h
MOLT-4 = assay: SRB anticancer assay, leukemia; type: cell-based, human; details: MOLT-4, 48 h
SR = assay: SRB anticancer assay, leukemia; type: cell-based, human; details: 48 h
A549/ATCC = assay: SRB anticancer assay, non-small lung; type: cell-based, human; details: 48 h
EKVX = assay: SRB anticancer assay, non-small lung; type: cell-based, human; details: 48 h
HOP-62 = assay: SRB anticancer assay, non-small lung; type: cell-based, human; details: HOP-62, 48 h
NCI-H226 = assay: SRB anticancer assay, non-small lung; type: cell-based, human; details: NCI-H226, 48 h
NCI-H23 = assay: SRB anticancer assay, non-small lung; type: cell-based, human; details: NCI-H23, 48 h
NCI-H322M = assay: SRB anticancer assay, non-small lung; type: cell-based, human; details: 48 h
NCI-H460 = assay: SRB anticancer assay, non-small lung; type: cell-based, human; details: NCI-H460, 48 h
NCI-H522 = assay: SRB anticancer assay, non-small lung; type: cell-based, human; details: NCI-H522, 48 h
HCT-116 = assay: SRB anticancer assay, colon; type: cell-based, human; details: HCT-116, 48 h
HT29 = assay: SRB anticancer assay, colon; type: cell-based, human; details: HT29, 48 h
KM12 = assay: SRB anticancer assay, colon; type: cell-based, human; details: KM12, 48 h
SW-620 = assay: SRB anticancer assay, colon; type: cell-based, human; details: SW-620, 48 h
SF-268 = assay: SRB anticancer assay, CNS; type: cell-based, human; details: SF-268, 48 h
SF-295 = assay: SRB anticancer assay, CNS; type: cell-based, human; details: SF-295, 48 h
SNB-19 = assay: SRB anticancer assay, CNS; type: cell-based, human; details: SNB-19, 48 h
SNB-75 = assay: SRB anticancer assay, CNS; type: cell-based, human; details: SNB-75, 48 h
U251 = assay: SRB anticancer assay, CNS; type: cell-based, human; details: U251, 48 h
IGROV1 = assay: SRB anticancer assay, ovarian; type: cell-based, human; details: IGROV1, 48 h
OVCAR-3 = assay: SRB anticancer assay, ovarian; type: cell-based, human; details: OVCAR-3, 48 h
OVCAR-4 = assay: SRB anticancer assay, ovarian; type: cell-based, human; details: OVCAR-4, 48 h
OVCAR-5 = assay: SRB anticancer assay, ovarian; type: cell-based, human; details: OVCAR-5, 48 h
SK-OV-3 = assay: SRB anticancer assay, ovarian; type: cell-based, human; details: SK-OV-3, 48 h
786-0 = assay: SRB anticancer assay, renal; type: cell-based, human; details: 786-0, 48 h
A498 = assay: SRB anticancer assay, renal; type: cell-based, human; details: A498, 48 h
ACHN = assay: SRB anticancer assay, renal; type: cell-based, human; details: 48 h
CAKI-1 = assay: SRB anticancer assay, renal; type: cell-based, human; details: CAKI-1, 48 h
SN12C = assay: SRB anticancer assay, renal; type: cell-based, human; details: 48 h
TK-10 = assay: SRB anticancer assay, renal; type: cell-based, human; details: TK-10, 48 h
UO-31 = assay: SRB anticancer assay, renal; type: cell-based, human; details: UO-31, 48 h
RXF 393 = assay: SRB anticancer assay, renal; type: cell-based, human; details: RXF 393, 48 h
PC-3 = assay: SRB anticancer assay, prostate; type: cell-based, human; details: PC-3, 48 h
DU-145 = assay: SRB anticancer assay, prostate; type: cell-based, human; details: DU-145, 48 h
MCF7 = assay: SRB anticancer assay, breast; type: cell-based, human; details: MCF7, 48 h
MDA-MB-231/ATCC = assay: SRB anticancer assay, breast; type: cell-based, human; details: 48 h, read-out: GI50
HS 578T = assay: SRB anticancer assay, breast; type: cell-based, human; details: 48 h
BT-549 = assay: SRB anticancer assay, breast; type: cell-based, human; details: BT-549, 48 h
MALME-3M = assay: SRB anticancer assay, melanoma; type: cell-based, human; details: MALME-3M, 48 h
M14 = assay: SRB anticancer assay, melanoma; type: cell-based, human; details: M14, 48 h
MDA-MB-435 = assay: SRB anticancer assay, melanoma; type: cell-based, human; details: MDA-MB-435, 48 h
SK-MEL-28 = assay: SRB anticancer assay, melanoma; type: cell-based, human; details: SK-MEL-28, 48 h
SK-MEL-5 = assay: SRB anticancer assay, melanoma; type: cell-based, human; details: SK-MEL-5, 48 h
UACC-62 = assay: SRB anticancer assay, melanoma; type: cell-based, human; details: UACC-62, 48 h
HL-60 (TB) = assay: SRB anticancer assay, leukemia; type: cell-based, human; details: HL-60 (TB), 48 h; read-out: GI50
COLO 205 = assay: SRB anticancer assay, colon; type: cell-based, human; details: COLO 205, 48 h
HCC-2998 = assay: SRB anticancer assay, colon; type: cell-based, human; details: HCC-2998, 48 h
HCT-15 = assay: SRB anticancer assay, colon; type: cell-based, human; details: HCT-15, 48 h
LOX IMVI = assay: SRB anticancer assay, melanoma; type: cell-based, human; details: 48 h
UACC-257 = assay: SRB anticancer assay, melanoma; type: cell-based, human; details: UACC-257, 48 h
K562 (Leukemia) cells = assay: Cell cycle distribution by flow cytometry; type: cell-based
Experimental: (§1) In order to investigate the mechanism underlying the anti-proliferative effect of the compounds the cell cycle distribution was analyzed in K562 (Leukemia) and MCF-7 (Breast carcinoma) cell lines by flow cytometry. Compounds CA-4, 21a, 21d, 4c, 6d, 6e, 6f, 7d, 7h and 7j have shown 1.72%, 14%, 12%, 14%, 12%, 14%, 14%, 16%, 16% &12% in K562 cells and 49.63%, 21%, 20%, 18%, 21%, 21%, 21%, 24%, 23% and 23% in MCF-7 cell line respectively. […] Thus compound 7d was considered for further studies (FIG. 1).

[1] = system: MCF-7 (Breast carcinoma) cells; assay: Cell cycle distribution by flow cytometry (FACS); type: cell-based; details: MCF-7 cells, 2 μM, 24h
Experimental: FIG. 1 represents FACS analysis of cell cycle distribution of MCF-7 cells after treatment with compounds CA-4, 21a, 21d, 4c, 6d, 6e, 6f, 7d, 7h and 7j at 2 μM concentration for 24h and control cells are the cells treated with DMSO (0.25%).
as §1

caspase-9 = assay: Western blot, apoptosis proteins in MCF-7 cells; type: cell-based; details: 2 μM, 24h
Experimental: (§2) FIG. 3 represents effect of compound 7d and 7h on p21 and caspase-9. MCF-7 cells were treated with 2 μM concentration of compounds 7d and 7h for 24h. The cell lysates were collected and probed with anti-bodies against p21 and caspase-9. beta-actin was used as loading control. Con: Control (untreated).
(§3) Activation of tumor suppressor gene p21 was the important regulator of apoptotic pathway caused by various stimuli. In many instances the apoptotic cell death is mediated by caspases, thus the possible involvement of p21 and caspase protein and its role in apoptosis has been investigated. MCF-7 cells were treated with 7d, 7h (the effective compounds of cell cycle arrest) 21a, 21d and CA-4 at 2 μM concentration.

p21 = assay: Western blot, apoptosis proteins in MCF-7 cells; type: cell-based; details: 2 μM, 24h
Experimental: as §2, §3

[2] = system: microtubule network of MCF-7 cells; assay: Effect on microtubule network; type: cell-based; details: 2 μM
Experimental: FIG. 2 represents effect of compound 7d, the effective compound on the microtubule network of MCF-7 cells untreated cells (Con), nocodazole (Noc) and 7d at 2 μM concentration. Microtubules and unassembled tubulin are shown in green and DNA was stained with nuclear dye DAPI (4,6-diamidino-2-phenylindole) is shown in blue colour.
Inhibition of tubulin is associated with G2/M cell cycle arrest by interrupting chromosome segregation and affecting mitotic spindle formation. […] It was considered of interest to understand the mechanism of anti-cancer activity of compound 7d with regard to interaction with microtubule system. MCF-7 breast cancer cells were treated with Nocodazole (Noc), 7d compounds at 2 μM concentration.

[3] = MDA-MB-231/ATCC (row head MDA-MB-)

Cc1cc(-c2nc3ccc(O)cc3s2)ccc1N [Compound 3b, reference compound]
GI50 (CCRF-CEM): 0.79 µM | GI50 (K-562): 36.3 µM | GI50 (MOLT-4): 26.9 µM | GI50 (SR): 21.9 µM | GI50 (A549/ATCC): 34.7 µM | GI50 (EKVX): 4.07 µM | GI50 (HOP-62): 30.9 µM | GI50 (NCI-H226): 60.3 µM | GI50 (NCI-H23): 12.6 µM | GI50 (NCI-H322M): 39.8 µM | GI50 (NCI-H460): 38.9 µM | GI50 (NCI-H522): 30.2 µM | GI50 (HCT-116): 43.7 µM | GI50 (HT29): 37.2 µM | GI50 (KM12): 57.6 µM | GI50 (SW-620): 66.1 µM | GI50 (SF-268): 35.5 µM | GI50 (SF-295): 31.6 µM | GI50 (SNB-19): 45.7 µM | GI50 (SNB-75): 15.8 µM | GI50 (U251): 31.6 µM | GI50 (IGROV1): 47.9 µM | GI50 (OVCAR-3): 38.9 µM | GI50 (OVCAR-4): 37.2 µM | GI50 (OVCAR-5): 83.2 µM | GI50 (SK-OV-3): 37.2 µM | GI50 (786-0): 29.5 µM | GI50 (A498): 41.7 µM | GI50 (ACHN): 53.7 µM | GI50 (CAKI-1): 34.7 µM | GI50 (SN12C): 38.9 µM | GI50 (TK-10): 77.6 µM | GI50 (UO-31): 21.4 µM | GI50 (RXF 393): 30.2 µM | GI50 (PC-3): 50.1 µM | GI50 (DU-145): 33.9 µM | GI50 (MCF7): 56.2 µM | GI50 (MDA-MB-231/ATCC; [3]): 44.7 µM | GI50 (MDA-MB-231/ATCC; listed as head printed 231/ATCC (second line of MDA-MB-231/ATCC)): 95.5 µM | GI50 (HS 578T): 14.1 µM | GI50 (BT-549): 22.4 µM | GI50 (MALME-3M): 83.2 µM | GI50 (M14): 33.1 µM | GI50 (MDA-MB-435): 89.1 µM | GI50 (SK-MEL-28): 64.6 µM | GI50 (SK-MEL-5): 52.5 µM | GI50 (UACC-62): 57.6 µM

Cc1cc(-c2nc3ccccc3s2)ccc1N [Compound 3a, reference compound]
GI50 (CCRF-CEM): 6.45 µM | GI50 (HL-60 (TB)): 8.71 µM | GI50 (K-562): 6.02 µM | GI50 (MOLT-4): 19.5 µM | GI50 (SR): 17.4 µM | GI50 (A549/ATCC): 28.8 µM | GI50 (EKVX): 34.7 µM | GI50 (NCI-H226): 0.35 µM | GI50 (NCI-H23): 58.9 µM | GI50 (NCI-H322M): 43.7 µM | GI50 (NCI-H460): 53.7 µM | GI50 (NCI-H522): 32.4 µM | GI50 (COLO 205): 51.3 µM | GI50 (HCC-2998): 0.25 µM | GI50 (HCT-116): 43.7 µM | GI50 (HCT-15): 47.9 µM | GI50 (HT29): 29.5 µM | GI50 (SF-295): 64.6 µM | GI50 (SNB-75): 33.1 µM | GI50 (U251): 66.1 µM | GI50 (IGROV1): 0.042 µM | GI50 (OVCAR-4): 0.54 µM | GI50 (A498): 42.7 µM | GI50 (ACHN): 51.3 µM | GI50 (SN12C): 50.1 µM | GI50 (TK-10): 0.18 µM | GI50 (UO-31): 6.45 µM | GI50 (RXF 393): 70.6 µM | GI50 (PC-3): 31.6 µM | GI50 (DU-145): 61.7 µM | GI50 (MCF7): 0.03 µM | GI50 (MDA-MB-231/ATCC; [3]): 66.1 µM | GI50 (HS 578T): 66.1 µM | GI50 (BT-549): 0.1 µM | GI50 (LOX IMVI): 37.2 µM | GI50 (M14): 57.6 µM | GI50 (MDA-MB-435): 79.5 µM | GI50 (SK-MEL-5): 21.9 µM | GI50 (UACC-257): 74.2 µM | GI50 (UACC-62): 70.8 µM

COc1ccc(/C=C\c2cc(OC)c(OC)c(OC)c2)cc1O [CA-4, Combretastatin A-4, reference compound]
cells in G2/M phase (K562 (Leukemia) cells): 1.72% | cells in G2/M phase [1]: 49.63% | caspase-9 protein (Western blot) (caspase-9): increase | p21 protein (Western blot) (p21): increase

COC(=O)Nc1nc2ccc(C(=O)c3cccs3)cc2[nH]1 [Nocodazole, reference compound]
microtubulin organization [2]: disrupted microtubulin organization

COc1cc2nc(-c3ccc(N)cc3)sc2c(OC)c1OC [Compound 21d, 4-(5,6,7-trimethoxybenzo[d]thiazol-2-yl)benzenamine]
cells in G2/M phase (K562 (Leukemia) cells): 12% | cells in G2/M phase [1]: 20% | caspase-9 protein (Western blot) (caspase-9): increase | p21 protein (Western blot) (p21): increase

Nc1ccc(-c2nc3ccc(F)cc3s2)cc1 [Compound 21a, 4-(6-fluorobenzo[d]thiazol-2-yl)benzenamine]
cells in G2/M phase (K562 (Leukemia) cells): 14% | cells in G2/M phase [1]: 21% | caspase-9 protein (Western blot) (caspase-9): increase | p21 protein (Western blot) (p21): increase
